# Test results reported in patent publication US20080015224A1, “Nitroxide superoxide dismutase mimetics to treat extracellular superoxide dismutase deficiencies” (priority 2006, published 2008).
# Entries after “also recorded” stand apart in the source; their conditions may differ. Where no end group is shown, it is not given here.
# Key:
# [1] = system: O2−. generated by xanthine plus xanthine oxidase; experiment: Inhibition of O2−. generated by xanthine-xanthine oxidase in vitro (SOD mimetic activity, lucigenin chemiluminescence); format: biochemical; conditions: for Maximum inhibition, %: O2−. generated by xanthine-xanthine oxidase in vitro, means ± SE, 5 studies; for O2−. generated by a xanthine-xanthine oxidase reaction extinguished: tested in PBS at 10^−4 M
# Method: (§1) The SOD activities of Ns were evaluated in vitro for their efficacy in dampening O2^−. generated by xanthine (25 μmol/l) plus xanthine oxidase (9 IU/ml). Their lipid solubility was assessed by shaking the Ns in a 50:50 mixture of PBS (Ambion, Austin, Tex.) and chloroform (CHCl3; EM Science, Gibbstown, N.J.), taking an aliquot of the PBS phase, evaporating the CHCl3phase to dryness, reconstituting it in PBS, and assessing the SOD activities in the two solutions. O2^−. was assessed by chemiluminescence with 5 μM lucigenin (AutoLumatPlus LB 953; EG&G, Berthold, Germany). The reduction in the stable peak value for chemiluminescence for each N, relative to vehicle, defined the SOD mimetic activity.
# SOD activity by the nitroxides was assessed in vitro (Table 1). […] The ratio of the activity that partitioned into CHCl3 compared with PBS was examined.
# [2] = system: spontaneously hypertensive rat (SHR); experiment: Acute antihypertensive response (MAP, HR) to graded intravenous doses in anesthetized SHR; format: in vivo; conditions: for acute change in MAP and HR: graded intravenous doses (nitroxides 17-270 μmol/kg; SOD 34-540 U/kg); for ED50 (sensitivity) for changes in MAP and HR: intravenous
# Method: Experiments were approved by the Georgetown University Animal Care and Use Committee. Male SHR weighing 250-350 g (Taconic, Germantown, N.Y.) were anesthetized with thiobutabarbital (Inactin; Sigma, St. Louis, Mo.) (10 mg/100 g) after halothane (Halocarbon Laboratories, River Edge, N.J.) induction. Rats received 0.9% NaCl at 2 ml/h IV up to the time of receiving drugs to maintain euvolemia. A femoral artery was cannulated with polyethelene (PE)-50 tubing connected to a digital blood pressure analyzer (Micro-Med, Louisville, Ky.). Animals were equilibrated for 45 min. Thereafter, a nitroxide (17 μmol/kg) was infused intravenously over 10 s. The mean arterial pressure (MAP) and heart rate (HR) were recorded over the first 5 min and at 10 and 15 min. This was followed by doses of 54, 72, 174, and 270 μmol/kg under similar conditions. The same protocol was followed with each nitroxide: T, 4-oxo-tempo (OT), 4-amino-tempo (AT), 3-carboxy-peroxyl (3-CTPY) (Aldrich, Milwaukee, Wis.), 3-carbomyl-proxyl (3-CP) (Sigma), and 4-trimethylammonium-2,2,6,6,-tetramethylpiperidine-1-oxyl iodide (CAT-1) (Molecular Probes, Eugene, Oreg.) (FIG. 3). Doses of bovine Cu/Zn SOD (MW 32,500; Oxis Research, Portland, Oreg.) were selected that had equivalent SOD mimetic activity in vitro to the doses of T used for intravenous studies: 34, 110, 140, 260, 350, and 540 U/kg. SOD injection followed a similar protocol to the nitroxides and was compared with vehicle-injected rats. Additional rats received injections of previously boiled SOD as a further control group. Six rats were studied in each group.
# The mean±SE changes in MAP and HR were calculated from the individual dose-response relations. The responsiveness was the maximum effect, and the sensitivity was the expected dose for ED50. Data were analyzed by ANOVA with post hoc testing by the Dunnett test, where appropriate. Statistical significance was taken as P<0.05.
# [3] = measured previously in the literature; cited from earlier work
# cell membranes = conditions: cited from earlier work
# [4] = Lipid solubility: partition of SOD activity between CHCl3 and PBS; format: physicochemical; conditions: 50:50 PBS and chloroform
# Method: as §1
# [5] = system: mesenteric resistance arteries (MRAs) from EC-SOD −/− and +/+ mice; experiment: Contraction of isolated mesenteric resistance arteries (myograph)
# Method: FIG. 19: Responses of mouse isolated mesenteric resistance vessles to endothelin-1: comparison of EC-SOD +/+ with −/−. (A) Contraction to endothelin-1, (B) Superoxide production with endothelin-1. Mean±SEM values (n=6-8 per group). Response to endothelin-1 in vessels incubated for 20 min with vehicle, tempol (10^−4 M), PEG-SOD (100 units·ml^−1), and catalase (300 units·ml^−1). Compared to vehicle, ***, p<0.005.
# (§2) Reactive oxygen spice (ROS) and endothelin-1 (ET-1) contribute to angiotensin-induced hypertension. We used isolated mesenteric resistance arteries (MRAs) from EC-SOD knockout (−/−) mice (n=10) and EC-SOD wild type (+/+) mice (n=10), as a model to investigate the hypothesis that microvascular ET-1 and superoxide anion (O2.^−) interact to enhance contractility. Tension and O2.^− were quantitated in real time in dihydroethidium (DHE)-loaded MRAs in a myograph equipped with a dual-emission photon detection fluorescence system to measure ethidium (Eth): DHE ratio (E/D) as a direct readout of O2.^− activity. […] PEG-SOD normalized augmented ET-1 contraction (64±4% vs 71±3%; p=ns) and prevent an increase in E/D ratio in MRAs from −/− (0.6±0.5 vs 0.5±0.8, p=ns). In summary, ET-1 generates microvascular O2.^− that enhances its vasoconstrictive action.
# [6] = system: mesenteric resistance arteries (MRAs) from EC-SOD −/− and +/+ mice; experiment: Superoxide as ethidium:DHE ratio (E/D) in dihydroethidium-loaded mesenteric resistance arteries
# From the text: as §2
# A current study contrasts the responses to endothelin-1 (ET-1) in mesenteric resistance vessels from EC-SOD (−/−) and (+/+) mice. […] Parallel studies of vascular superoxide in dihydroethidium-loaded vessels show enhanced conversion to ethidium, indicating enhanced superoxide formation, in vessels from EC-SOD −/−mice. […] We conclude that in the model system of SOD deficiency caused by gene deletion of EC-SOD in the mouse, tempol can correct enhanced contractions and enhanced oxidative stress. It is thereby envisioned as being effective in preventing hypertension and cardiovascular disease.
# [7] = cited from earlier work
# EC-SOD +/+ and −/− mice [8] = experiment: MAP of conscious mice by telemetry during subcutaneous Ang II infusion; format: in vivo, mouse; conditions: for MAP during Ang II infusion: 400 ng/kg per minute subcutaneously, 2 weeks; for Change in MAP with Ang II (mmHg) / MAP on day 12 of Ang II (mmHg): conscious, telemetry
# From the text: For the first series, mice were instrumented with indwelling radiotelemeters (DSI) connected to a cather in a carotid artery and placed within the abdomen 2 weeks before placement of osmotic minipumps as described previously (Kawada N, et al. 2002 J Am Soc Nephrol 13 :2860-2868). Mice were anesthetized with isoflurane (1.0 to 1.5% in 100% O2) before insertion of telemeters and allowed to recover from the surgery for 12 days before the start of BP recording. Basal recordings of MAP and heart rate (HR) were measured continuously by telemetry for 3 days. Thereafter, mice were anesthetized with isoflurane for insertion of osmotic minipumps (Direct Corp) to deliver Ang II (400 ng^−1 kg^−1 per minute) or vehicle (Veh) subcutaneously for 2 weeks. An additional group received a higher pressor rate of Ang II infusion (1000 ng/kg^−1 min^−1, SC). The mean values for 24-hour periods are reported. For subsequent series, mice were prepared without placement of telemeters and Ang II was infused only at the slow pressor rate.
# EC-SOD +/+ and −/− mice [9] = experiment: MAP of anesthetized mice (direct arterial cannulation) during Ang II infusion; format: in vivo, mouse; conditions: 400 ng·kg^−1·min^−1
# Method: Cannulae were placed in the jugular vein (for infusion of fluids and renal function markers), the femoral artery (for direct measurement of MAP and HR), and the bladder (for the collection of urine). A tracheostomy was performed to permit free, uninterrupted respiration of room air. [^3H]-Inulin was infused at 0.1 μCi^−1 hr^−1 for the measurement of glomerular filtration rate. [^14C]-Para-amino hippurate (PAH) was infused at 0.2 μCi^−1 hr^−1. Blood was collected from the femoral artery and renal vein at the end of the collection period to measure hematocrit and renal PAH extraction. Renal plasma flow (RPF) was calculated from the clearance of PAH factored by its renal extraction. Renal blood flow was calculated from RPF factored by (1-hematocrit). Renal vascular resistance (RVR) was calculated from MAP factored by RBF. In separate groups, plasma was obtained, and the aorta and kidneys were harvested and prepared for further analysis.
# [10] = EC-SOD (+/+), 400 ng·kg^−1·min^−1
# [11] = EC-SOD (+/+), 1000 ng·kg^−1·min^−1
# [12] = EC-SOD (−/−), 400 ng·kg^−1·min^−1
# [13] = EC-SOD (−/−), 1000 ng·kg^−1·min^−1
compound,measurement,setting,value
"CC1(C)CC(N)CC(C)(C)N1[O] [AT, 4-amino-2,2,6,6-tetramethylpiperidine-1-oxyl]","Maximum inhibition, %",[1],88 ± 2 %
same,O2−. generated by a xanthine-xanthine oxidase reaction extinguished,[1],88%
same,maximal reduction in MAP (comparison between compounds),[2]; graded intravenous doses,greatest reductions in MAP
same,acute change in MAP and HR,[2],graded reductions; also recorded: decreased MAP and HR acutely
same,ED50 (sensitivity) for changes in MAP and HR,[2],highest ED50s
same,redox midpoint potential E1/2,[3],820 mV
"CC1(C)CC([N+](C)(C)C)CC(C)(C)N1[O].[I-] [CAT-1, 4-trimethylammonium-2,2,6,6,-tetramethylpiperidine-1-oxyl iodide]","Maximum inhibition, %",[1],42 ± 2 %
same,O2−. generated by a xanthine-xanthine oxidase reaction extinguished,[1],significantly lower fraction
same,maximal reduction in MAP (comparison between compounds),[2]; graded intravenous doses,significantly more modest reductions
same,acute change in MAP and HR,[2],graded reductions; also recorded: decreased MAP and HR acutely
same,ED50 (sensitivity) for changes in MAP and HR,[2],lowest ED50
same,redox midpoint potential E1/2,[3],significantly higher values still
same,permeation of cells,cell membranes,does not permeate cells
"CC1(C)CC(C(N)=O)C(C)(C)N1[O] (stereo not shown) [Compound 3-CP, 3-carbomoyl-proxyl]","Maximum inhibition, %",[1],82 ± 1 %
same,O2−. generated by a xanthine-xanthine oxidase reaction extinguished,[1],significantly lower fraction
same,acute change in MAP and HR,[2],ineffective; also recorded: did not; also recorded: does not reduce BP in vivo
"CC1(C)CC(=O)CC(C)(C)N1[O] [OT, 4-oxo-tempo]","Maximum inhibition, %",[1],62 ± 2 %
same,O2−. generated by a xanthine-xanthine oxidase reaction extinguished,[1],significantly lower fraction
same,ratio of the activity that partitioned into CHCl3 compared with PBS (partition ratio),[4],greatest partition ratio
same,maximal reduction in MAP (comparison between compounds),[2]; graded intravenous doses,significantly more modest reductions
same,reduction in HR (comparison between compounds),[2]; graded intravenous doses,smaller
same,acute change in MAP and HR,[2],graded reductions; also recorded: decreased MAP and HR acutely
same,ED50 (sensitivity) for changes in MAP and HR,[2],highest ED50s
same,redox midpoint potential E1/2,[3],913 mV
CNC[C@H](O)c1cccc(O)c1 [Phenylephrine],"Phenylephrine-induced contractions, EC-SOD −/− versus +/+",[5]; MRAs from both groups,similar
same,E/D ratio with phenylephrine,[6]; MRAs from both groups,did not change
"Cu/Zn SOD: bovine Cu/Zn SOD (MW 32,500; Oxis Research)",delay of MAP lowering versus vehicle,[2]; graded intravenous doses,90 to 110 min
same,acute change in MAP and HR,[2]; listed as SOD,no acute effect; also recorded: did not
same,injected SOD associated with the kidney,[7]; 45 min after injection,~10%
same,plasma half time,[7]; after intravenous administration,6 min
"angiotensin II (DRVYIHPF; Angiotensin-2; UniProt P01019 25-32, looked up) [Ang II, pressor peptide infused subcutaneously by osmotic minipump]",MAP during Ang II infusion,EC-SOD +/+ and −/− mice [8]; EC-SOD +/+,125±3 mm Hg
same,MAP during Ang II infusion,EC-SOD +/+ and −/− mice [8]; EC-SOD −/−,124±3 mm Hg
same,Change in MAP with Ang II (mmHg),EC-SOD +/+ and −/− mice [8]; [10],+24.4 ± 3.45 mmHg
same,MAP on day 12 of Ang II (mmHg),EC-SOD +/+ and −/− mice [8]; [10],134.6 ± 3.3 mmHg
same,Change in MAP with Ang II (mmHg),EC-SOD +/+ and −/− mice [8]; [11],+35.7 ± 6.5 mmHg
same,MAP on day 12 of Ang II (mmHg),EC-SOD +/+ and −/− mice [8]; [11],149.1 ± 4.3 mmHg
same,Change in MAP with Ang II (mmHg),EC-SOD +/+ and −/− mice [8]; [12],+16.7 ± 4.42 mmHg
same,MAP on day 12 of Ang II (mmHg),EC-SOD +/+ and −/− mice [8]; [12],132.5 ± 4.1 mmHg
same,Change in MAP with Ang II (mmHg),EC-SOD +/+ and −/− mice [8]; [13],+30.7 ± 3.3 mmHg
same,MAP on day 12 of Ang II (mmHg),EC-SOD +/+ and −/− mice [8]; [13],149.9 ± 5.4 mmHg
same,MAP on day 12 of Ang II (mmHg),EC-SOD +/+ and −/− mice [9]; EC-SOD (+/+),92.1 ± 3.0 mmHg
same,MAP on day 12 of Ang II (mmHg),EC-SOD +/+ and −/− mice [9]; EC-SOD (−/−),98.4 ± 2.6 mmHg
"endothelin-1 (CSCSSLMDKECVYFCHLDIIW; ends and bridges not checked; cysteine pairing not given here; UniProt P05305 53-73, looked up) [ET-1, vasoconstrictor peptide used to contract mesenteric resistance arteries]",ET-1 induced contraction,[5]; MRAs from EC-SOD +/+ mice,66±5%
same,ET-1 induced contraction,[5]; MRAs from EC-SOD −/− mice,100±3%
same,E/D ratio (ethidium:DHE) with ET-1,[6]; MRAs from EC-SOD +/+ mice,0.5±0.8
same,E/D ratio (ethidium:DHE) with ET-1,[6]; MRAs from EC-SOD −/− mice,3.7±0.5
